Test results: PubChem BioAssay (NCI)
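Tested at 5 concentrations; 48 h exposure; 96-well plates; endpoints linearly interpolated, else capped at highest concentration. At the GI50, growth is halved. TGI marks complete inhibition of growth.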

Columns and labels:
Test in all cases: inhibition of tumour cell growth, NCI panel, 48 h
ACHN renal = test system: ACHN renal
MDA-MB-231 breast = test system: MDA-MB-231 breast
HOP-62 NSCLC = test system: HOP-62 NSCLC
SN12C renal = test system: SN12C renal
LOX IMVI melanoma = test system: LOX IMVI melanoma
OVCAR-8 ovarian = test system: OVCAR-8 ovarian
M14 melanoma = test system: M14 melanoma
U251 CNS = test system: U251 CNS
MOLT-4 leukemia = test system: MOLT-4 leukemia
MCF7 breast = test system: MCF7 breast
SK-MEL-2 melanoma = test system: SK-MEL-2 melanoma
HT29 colon = test system: HT29 colon
SW-620 colon = test system: SW-620 colon
EKVX NSCLC = test system: EKVX NSCLC
PC-3 prostate = test system: PC-3 prostate
SF-295 CNS = test system: SF-295 CNS
A549 NSCLC = test system: A549 NSCLC
HOP-92 NSCLC = test system: HOP-92 NSCLC
IGROV1 ovarian = test system: IGROV1 ovarian
TK-10 renal = test system: TK-10 renal
SK-MEL-5 melanoma = test system: SK-MEL-5 melanoma
K-562 leukemia = test system: K-562 leukemia
NCI-H226 lung = test system: NCI-H226 lung
COLO 205 colon = test system: COLO 205 colon
RPMI-8226 leukemia = test system: RPMI-8226 leukemia
HCT-15 colon = test system: HCT-15 colon
HS 578T breast = test system: HS 578T breast
A498 renal = test system: A498 renal
UACC-257 melanoma = test system: UACC-257 melanoma
OVCAR-4 ovarian = test system: OVCAR-4 ovarian
SF-268 CNS = test system: SF-268 CNS
SNB-75 CNS = test system: SNB-75 CNS
HL-60(TB) leukemia = test system: HL-60(TB) leukemia
UACC-62 melanoma = test system: UACC-62 melanoma
UO-31 renal = test system: UO-31 renal
SF-539 CNS = test system: SF-539 CNS
CCRF-CEM leukemia = test system: CCRF-CEM leukemia
SK-MEL-28 melanoma = test system: SK-MEL-28 melanoma
OVCAR-5 ovarian = test system: OVCAR-5 ovarian
BT-549 breast = test system: BT-549 breast
DU-145 prostate = test system: DU-145 prostate
CAKI-1 renal = test system: CAKI-1 renal
HCC-2998 colon = test system: HCC-2998 colon
NCI-H460 lung = test system: NCI-H460 lung
SNB-19 CNS = test system: SNB-19 CNS
786-0 renal = test system: 786-0 renal
MDA-MB-435 = test system: MDA-MB-435
OVCAR-3 ovarian = test system: OVCAR-3 ovarian
HCT-116 colon = test system: HCT-116 colon
NCI/ADR-RES ovarian = test system: NCI/ADR-RES ovarian
SR leukemia = test system: SR leukemia
SK-OV-3 ovarian = test system: SK-OV-3 ovarian
KM12 colon = test system: KM12 colon
T-47D breast = test system: T-47D breast
MALME-3M melanoma = test system: MALME-3M melanoma
NCI-H522 lung = test system: NCI-H522 lung
RXF 393 renal = test system: RXF 393 renal

CS(=O)c1nccc(-c2c(-c3ccc(F)c(OCCc4ccc(F)cc4)c3)nc3sccn23)n1 (centres undefined)
GI50 (ACHN renal): 2070 nM
TGI (ACHN renal): 4.37 µM
GI50 (MDA-MB-231 breast): 14.6 µM
TGI (MDA-MB-231 breast): 31.9 µM
GI50 (HOP-62 NSCLC): 16.2 µM
TGI (HOP-62 NSCLC): 32.2 µM
GI50 (SN12C renal): 15.2 µM
TGI (SN12C renal): 33.7 µM
GI50 (LOX IMVI melanoma): 10.5 µM
TGI (LOX IMVI melanoma): 23.4 µM
GI50 (OVCAR-8 ovarian): 14.3 µM
TGI (OVCAR-8 ovarian): 28 µM
GI50 (M14 melanoma): 15.2 µM
TGI (M14 melanoma): 30.4 µM
GI50 (U251 CNS): 28.8 µM
TGI (U251 CNS): > 100 µM
GI50 (MOLT-4 leukemia): 4.04 µM
TGI (MOLT-4 leukemia): 15.8 µM
GI50 (MCF7 breast): 2020 nM
TGI (MCF7 breast): 4.81 µM
GI50 (SK-MEL-2 melanoma): 15.6 µM
TGI (SK-MEL-2 melanoma): 29.7 µM
GI50 (HT29 colon): 14.9 µM
TGI (HT29 colon): 30.1 µM
GI50 (SW-620 colon): 3.5 µM
TGI (SW-620 colon): 14.1 µM
GI50 (EKVX NSCLC): 17 µM
TGI (EKVX NSCLC): 42.3 µM
GI50 (PC-3 prostate): 11.9 µM
TGI (PC-3 prostate): 27.4 µM
GI50 (SF-295 CNS): > 100 µM
TGI (SF-295 CNS): > 100 µM
GI50 (A549 NSCLC): > 100 µM
TGI (A549 NSCLC): > 100 µM
GI50 (HOP-92 NSCLC): 6.72 µM
TGI (HOP-92 NSCLC): 26.7 µM
GI50 (IGROV1 ovarian): 2480 nM
TGI (IGROV1 ovarian): 6.65 µM
GI50 (TK-10 renal): 30.9 µM
TGI (TK-10 renal): > 100 µM
GI50 (SK-MEL-5 melanoma): 23.4 µM
TGI (SK-MEL-5 melanoma): 58.7 µM
GI50 (K-562 leukemia): 3.04 µM
TGI (K-562 leukemia): 11.7 µM
GI50 (NCI-H226 lung): 15.5 µM
TGI (NCI-H226 lung): 32.4 µM
GI50 (COLO 205 colon): 28.4 µM
TGI (COLO 205 colon): > 100 µM
GI50 (RPMI-8226 leukemia): 4.84 µM
TGI (RPMI-8226 leukemia): 28.4 µM
GI50 (HCT-15 colon): 3.95 µM
TGI (HCT-15 colon): 16.9 µM
GI50 (HS 578T breast): 19.9 µM
TGI (HS 578T breast): 79.6 µM
GI50 (A498 renal): > 100 µM
TGI (A498 renal): > 100 µM
GI50 (UACC-257 melanoma): 14.6 µM
TGI (UACC-257 melanoma): 29.5 µM
GI50 (OVCAR-4 ovarian): 14.7 µM
TGI (OVCAR-4 ovarian): 28.6 µM
GI50 (SF-268 CNS): 16.1 µM
TGI (SF-268 CNS): 32.1 µM
GI50 (SNB-75 CNS): 21.2 µM
TGI (SNB-75 CNS): > 100 µM
GI50 (HL-60(TB) leukemia): 2500 nM
TGI (HL-60(TB) leukemia): 6.05 µM
GI50 (UACC-62 melanoma): 16.1 µM
TGI (UACC-62 melanoma): 33.2 µM
GI50 (UO-31 renal): 1820 nM
TGI (UO-31 renal): 4.11 µM
GI50 (SF-539 CNS): 18 µM
TGI (SF-539 CNS): 41 µM
GI50 (CCRF-CEM leukemia): 5.16 µM
TGI (CCRF-CEM leukemia): 24 µM
GI50 (SK-MEL-28 melanoma): 9.81 µM
TGI (SK-MEL-28 melanoma): 21.5 µM
GI50 (OVCAR-5 ovarian): 39.9 µM
TGI (OVCAR-5 ovarian): > 100 µM
GI50 (BT-549 breast): 18.4 µM
TGI (BT-549 breast): 37.5 µM
GI50 (DU-145 prostate): 4.13 µM
TGI (DU-145 prostate): 14.5 µM
GI50 (CAKI-1 renal): 11.1 µM
TGI (CAKI-1 renal): 23 µM
GI50 (HCC-2998 colon): 11.7 µM
TGI (HCC-2998 colon): 24.9 µM
GI50 (NCI-H460 lung): 4.89 µM
TGI (NCI-H460 lung): 17.4 µM
GI50 (SNB-19 CNS): 14.6 µM
TGI (SNB-19 CNS): 29.3 µM
GI50 (786-0 renal): 34.8 µM
TGI (786-0 renal): > 100 µM
GI50 (MDA-MB-435): 16.7 µM
TGI (MDA-MB-435): 32.2 µM
GI50 (OVCAR-3 ovarian): 3.45 µM
TGI (OVCAR-3 ovarian): 12.9 µM
GI50 (HCT-116 colon): 3.52 µM
TGI (HCT-116 colon): 12.4 µM
GI50 (NCI/ADR-RES ovarian): 20.3 µM
TGI (NCI/ADR-RES ovarian): 49 µM
GI50 (SR leukemia): 4.22 µM
TGI (SR leukemia): 28.8 µM
GI50 (SK-OV-3 ovarian): > 100 µM
TGI (SK-OV-3 ovarian): > 100 µM
GI50 (KM12 colon): 14.5 µM
TGI (KM12 colon): 29.2 µM
GI50 (T-47D breast): 2490 nM
TGI (T-47D breast): 6.12 µM
GI50 (MALME-3M melanoma): 15.3 µM
TGI (MALME-3M melanoma): 33.3 µM
GI50 (NCI-H522 lung): 13.5 µM
TGI (NCI-H522 lung): 29.7 µM
GI50 (RXF 393 renal): 13.3 µM
TGI (RXF 393 renal): 26.3 µM
